Test results reported in patent US7842802B2, “Vinorelbine derivatives” (priority 2003, dated 2010).
Like-named read-outs stand apart in the source and are kept apart here.

What was measured:
[1] = system: HeLa S-3 human cervical carcinoma cell line; assay: HeLa GI50 determination (SRB); assay type: cell-based; settings: Homo sapiens, HeLa S3, 48 h, read-out: HeLa Cells GI50
Method: Growth inhibition (GI50) values were measured on the human cervical carcinoma cell line, HeLa S-3, which were selected for growth on plastic. The HeLa cell assay was based on the description of Skehan et al., J. Natl. Cancer Inst., 82:1107-12 (1990), which is hereby incorporated by reference in its entirety. HeLa cells were plated at 2×10^4 cells/well in 96 well plates. One day later, a control plate was fixed by the addition of TCA to 5%. After five rinses with tap water, the plate was air-dried and stored at 4° C. Test compounds were added to the remaining plates at 10-fold dilutions. Two days later, all plates were fixed as described above. Cells were then stained by the addition of 100 μL per well of 0.4% sulforhodamine B (SRB) in 1% acetic acid for 30 min at 4° C. Wells were then quickly rinsed 5× with 1% acetic acid and allowed to air dry. The SRB was then solubilized by the addition of 100 μL per well of unbuffered 10 mM Tris base. Dye was quantified by measuring absorbance at 490 nm on a Molecular Devices microplate reader. Growth inhibition was calculated according to the following equation: GI=100×(T−T0)/(C−T0), where the optical density (OD) of the test well after 2 days of treatment was T, the OD of the wells in the control plate on day 0 was T0 and C was the OD of untreated wells. Plots of percent growth inhibition versus inhibitor concentration were used to determine the GI50.

[2] = system: MCF-7 human breast carcinoma line; assay: MCF-7 GI50 determination (crystal violet); assay type: cell-based; settings: Homo sapiens, MCF7, 96 h, read-out: MCF-7 Cells GI50
Method: Growth inhibition (GI50) values were measured on the human breast carcinoma line, MCF-7. MCF-7 cells were plated at 2×10^4 cells/well in 96 well plates and grown for 24 hours in drug free media. On day 2, test compounds were added to the plates at 10-fold dilutions. Four days later, cells were fixed by the addition of glutaraldehyde to 0.75%. After 30 min, the fixed cells were extensively rinsed with distilled water and dried at room temperature for one hour. The cells were then stained with a 0.2% crystal violet solution for one hour at room temperature. Unbound stain was removed by ten rinses with tap water and plates were allowed to air dry for 30 min. The crystal violet was then solubilized by the addition of 10% acetic acid for 15 min and quantified by measuring absorbance at 570 nm on a Molecular Devices microplate reader. Growth inhibition was calculated according to the following equation: GI=[…], where the optical density (OD) of the test well after 4 days of treatment was T, the OD of the wells in the control plate on day 0 was T0. Plots of percent growth inhibition versus inhibitor concentration were used to determine the GI50.

[3] = HeLa S-3, 2 days of treatment, SRB
[4] = MCF-7, 4 days of treatment, crystal violet

## CCC1=C[C@H]2CN(C1)Cc1c([nH]c3ccc(C(C)=O)cc13)[C@@](C(=O)OC)(c1cc3c(cc1OC)N(C)[C@H]1[C@@](O)(C(=O)OC)[C@H](OC(C)=O)C4C(CC)=CCN5CC[C@]31[C@H]45)C2 (stereo partly shown) [Example 26, 11′-acetylvinorelbine]
[1]; [3]
  GI50: 4 nM
[2]; [4]
  GI50: 20 nM

## CCCCC#Cc1ccc2[nH]c3c(c2c1)CN1CC(CC)=C[C@@H](C1)C[C@]3(C(=O)OC)c1cc2c(cc1OC)N(C)[C@H]1[C@@](O)(C(=O)OC)[C@H](OC(C)=O)C3C(CC)=CCN4CC[C@]21[C@H]34 (stereo partly shown) [Example 22, 11′-hexynylvinorelbine]
[1]; [3]
  GI50: 40 nM
[2]; [4]
  GI50: 50 nM

## CCC1=C[C@H]2CN(C1)Cc1c([nH]c3ccc(C#N)cc13)[C@@](C(=O)OC)(c1cc3c(cc1OC)N(C)[C@H]1[C@@](O)(C(=O)OC)[C@H](OC(C)=O)C4C(CC)=CCN5CC[C@]31[C@H]45)C2 (stereo partly shown) [Example 25, 11′-cyanovinorelbine]
[1]; [3]
  GI50: 1 nM
[2]; [4]
  GI50: 6 nM

## CCC1=C[C@H]2CN(C1)Cc1c([nH]c3ccc(SCCO)cc13)[C@@](C(=O)OC)(c1cc3c(cc1OC)N(C)[C@H]1[C@@](O)(C(=O)OC)[C@H](OC(C)=O)C4C(CC)=CCN5CC[C@]31[C@H]45)C2 (stereo partly shown) [Example 14, 11′-(2-hydroxyethylsulfanyl)vinorelbine]
[1]; [3]
  GI50: 30 nM
[2]; [4]
  GI50: 50 nM

## CCC1=C[C@H]2CN(C1)Cc1c([nH]c3ccc(I)cc13)[C@@](C(=O)OC)(c1cc3c(cc1OC)N(C)[C@H]1[C@@](OC)(C(=O)OC)[C@H](OC(C)=O)C4C(CC)=CCN5CC[C@]31[C@H]45)C2 (stereo partly shown) [Example 34, 3-methyl-11′-iodo vinorelbine]
[1]; [3]
  GI50: 30 nM
[2]; [4]
  GI50: 30 nM

## CCCC(=O)/C=C/c1ccc2[nH]c3c(c2c1)CN1CC(CC)=C[C@@H](C1)C[C@]3(C(=O)OC)c1cc2c(cc1OC)N(C)[C@H]1[C@@](O)(C(=O)OC)[C@H](OC(C)=O)C3C(CC)=CCN4CC[C@]21[C@H]34 (stereo partly shown) [Example 4, 11′-(3-oxohex-1-enyl) vinorelbine]
[1]; [3]
  GI50: 400 nM
[2]; [4]
  GI50: 300 nM

## CCC1=C[C@H]2CN(C1)Cc1c([nH]c3ccc(/C=C/C(=O)OC(C)(C)C)cc13)[C@@](C(=O)OC)(c1cc3c(cc1OC)N(C)[C@H]1[C@@](O)(C(=O)OC)[C@H](OC(C)=O)C4C(CC)=CCN5CC[C@]31[C@H]45)C2 (stereo partly shown) [Example 5, 11′-(2-tert-butoxycarbonylvinyl) vinorelbine]
[1]
  GI50: 300 nM
[2]
  GI50: 600 nM

## CCC1=C[C@H]2CN(C1)Cc1c([nH]c3ccc(Sc4ccccc4)cc13)[C@@](C(=O)OC)(c1cc3c(cc1OC)N(C)[C@H]1[C@@](O)(C(=O)OC)[C@H](OC(C)=O)C4C(CC)=CCN5CC[C@]31[C@H]45)C2 (stereo partly shown) [Example 17, 11′-(phenysulfanyl) vinorelbine]
[1]; [3]
  GI50: 20 nM
[2]; [4]
  GI50: 300 nM

## CCC1=C[C@H]2CN(C1)Cc1c([nH]c3ccc(Sc4cccc(O)c4)cc13)[C@@](C(=O)OC)(c1cc3c(cc1OC)N(C)[C@H]1[C@@](O)(C(=O)OC)[C@H](OC(C)=O)C4C(CC)=CCN5CC[C@]31[C@H]45)C2 (stereo partly shown) [Example 18, 11′-(3-hydroxyphenysulfanyl)vinorelbine]
[1]; [3]
  GI50: 30 nM
[2]; [4]
  GI50: 300 nM

## CCSc1ccc2[nH]c3c(c2c1)CN1CC(CC)=C[C@@H](C1)C[C@]3(C(=O)OC)c1cc2c(cc1OC)N(C)[C@H]1[C@@](O)(C(=O)OC)[C@H](OC(C)=O)C3C(CC)=CCN4CC[C@]21[C@H]34 (stereo partly shown) [Example 11, 11′-(ethylsulfanyl) vinorelbine]
[1]; [3]
  GI50: 5 nM
[2]; [4]
  GI50: 20 nM

## CCC1=C[C@H]2CN(C1)Cc1c([nH]c3ccc(SCC(=O)OC)cc13)[C@@](C(=O)OC)(c1cc3c(cc1OC)N(C)[C@H]1[C@@](O)(C(=O)OC)[C@H](OC(C)=O)C4C(CC)=CCN5CC[C@]31[C@H]45)C2 (stereo partly shown) [Example 9, 11′-(methoxycarbonylmethylsulfanyl) vinorelbine]
[1]; [3]
  GI50: 20 nM
[2]; [4]
  GI50: 30 nM
